Values joined by “and” are separate entries in the source; they are usually repeats but may differ in a detail not shown here. Equal values may be shown once. Records with an inconclusive call do not appear. Active and inactive are the calls of the source.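 Rule for the calls: active = Compounds whose fitted IC50 for cell-normalized streptokinase activity falls within a set log distance above the top dose; inactive = IC50 further above the top dose than that limit.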
molecular target: S. pyogenes M1 GAS, streptokinase activity/viability, OD405, 6 h; test: viability-normalized secreted streptokinase activity reduction – plasminogen activation absorbance, OD405, dose response (AID 1914)

SMILES | IC50
Cc1ccc(C[n+]2c(-c3ccc(C)cc3)cc(-c3ccc(C)cc3)cc2-c2ccc(C)cc2)cc1 | 3.61 µM
CN(C)c1ccnc2c[cH-]cc12.[Fe].c1ccc(-[c-]2[c-](-c3ccccc3)[c-](-c3ccccc3)[c-](-c3ccccc3)[c-]2-c2ccccc2)cc1 (stereo unspecified) | 2.11 µM and 2.6 µM
CCN1/C(=C\C=C\C2=[N+](CC)c3ccccc3C2(C)C)C(C)(C)c2ccccc21 | 15.6 µM
CCCCCCCCCCCCCCCCn1cc[n+](C)c1 | > 15 µM (inactive)
CNC(CC(C)C)C(=O)NC1C(=O)NC(CC(N)=O)C(=O)NC2C(=O)NC3C(=O)NC(C(=O)NC(C(=O)O)c4cc(O)cc(O)c4-c4cc3ccc4O)C(O)c3ccc(c(Cl)c3)Oc3cc2cc(c3OC2OC(CO)C(O)C(O)C2OC2CC(C)(N)C(O)C(C)O2)Oc2ccc(cc2Cl)C1O (stereo unspecified) | > 15 µM (inactive)
Cc1ccc(C(O)(C(=O)NNc2ccc3ccccc3n2)c2ccc(C)cc2)cc1 | > 15 µM (inactive)
